# Laboratory results taken from article PMC4336630 (Molecular cell, 2015).
# “Also recorded” adds a separate entry of the source.
# Key:
# S. aureus GMK [1] = molecular target: T1, S. aureus GMK (Staphylococcus aureus, UniProt P99176); test: biochemical
# S. aureus GMK [2] = molecular target: T1, S. aureus GMK
# E. coli GMK [3] = molecular target: T2, E. coli GMK (Escherichia coli, UniProt P60546); assay type: biochemical
# S. mutans GMK [4] = molecular target: T3, S. mutans GMK (Streptococcus mutans serotype c, UniProt Q8DVK6)
# S. coelicolor GMK [5] = molecular target: T4, S. coelicolor GMK (Streptomyces coelicolor, UniProt Q9KXS0)
# [6] = system: chimeric E. coli GMKs with S. aureus lid domains; assay type: biochemical
# S. meliloti GMK [7] = molecular target: T5, S. meliloti GMK (Sinorhizobium meliloti, UniProt Q92QZ2)
# [8] = system: Klebsiella pneumoniae GMK; assay type: biochemical
# E. faecalis GMK-2 [9] = molecular target: T6, E. faecalis GMK-2 (Enterococcus faecalis, UniProt Q831B6); conditions: cited from earlier work
# S. meliloti GMK [10] = molecular target: T5, S. meliloti GMK; test: biochemical
# [11] = system: Yersinia enterocolitica GMK; assay type: biochemical
# E. faecalis GMK-1 = E. faecalis GMK-1 (Enterococcus faecalis, UniProt Q82ZD5); assay type: biochemical
# T. thermophilus GMK [12] = molecular target: T7, T. thermophilus GMK (Thermus thermophilus, UniProt Q5SI18)
# S. mutans GMK [13] = molecular target: T3, S. mutans GMK; test: biochemical
# C. gilvus GMK [14] = molecular target: T8, C. gilvus GMK (Cellulomonas gilvus, UniProt F8A6C8)
# B. subtilis GMK [15] = molecular target: T9, B. subtilis GMK (Bacillus subtilis, UniProt O34328); assay type: binding
# C. gilvus GMK [16] = molecular target: T8, C. gilvus GMK; test: biochemical
# [17] = system: Chimeric S. aureus GMKs with E. coli lid domains; assay type: biochemical
# L. monocytogenes GMK [18] = molecular target: T10, L. monocytogenes GMK (Listeria monocytogenes serovar 1/2a, UniProt Q8Y672); test: biochemical
# D. radiodurans GMK [19] = molecular target: T11, D. radiodurans GMK (Deinococcus radiodurans, UniProt Q9RS38)
# E. coli GMK [20] = molecular target: T2, E. coli GMK; assay type: binding
# M. tuberculosis GMK = M. tuberculosis GMK (Mycobacterium tuberculosis, UniProt P9WKE9); assay type: biochemical
# Pseudomonas syringae GMK = assay type: biochemical
# Coxiella burnetii GMK = Coxiella burnetii GMK (Coxiella burnetii, UniProt Q83EL7); assay type: biochemical
# B. anthracis GMK [21] = molecular target: T12, B. anthracis GMK (Bacillus anthracis, UniProt Q81WG7); test: biochemical
# B. subtilis GMK [22] = molecular target: T9, B. subtilis GMK; test: biochemical
# B. anthracis GMK [23] = molecular target: T12, B. anthracis GMK
# T. thermophilus IMPDH = conditions: cited from earlier work
# D. radiodurans GMK [24] = molecular target: T11, D. radiodurans GMK; test: biochemical
# B. subtilis GMK Y77F = B. subtilis GMK Y77F (Bacillus subtilis, UniProt O34328, Y77F); assay type: biochemical
# T. thermophilus GMK [25] = molecular target: T7, T. thermophilus GMK; test: biochemical
# E. faecalis GMK-2 [26] = molecular target: T6, E. faecalis GMK-2; assay type: biochemical
# [27] = system: Neisseria meningitidis GMK; assay type: biochemical
# S. coelicolor GMK [28] = molecular target: T4, S. coelicolor GMK; test: biochemical
# L. monocytogenes GMK [29] = molecular target: T10, L. monocytogenes GMK
# B. subtilis GMK [30] = molecular target: T9, B. subtilis GMK
# A. tumefaciens GMK = A. tumefaciens GMK (Agrobacterium tumefaciens, UniProt Q8UGD7); assay type: biochemical
# [31] = system: GMK of Rhodobacter sphaeroides; assay type: biochemical
# [32] = system: Nc1nc2c(ncn2[C@@H]2O[C@H](COP(=O)(O)O)[C@@H](O)[C@H]2O)c(=O)[nH]1; test: purified protein, by the assay type; conditions: 25.0 °C
compound,measurement,setting,value
"Nc1nc2c(ncn2[C@@H]2O[C@H](COP(=O)(O)OP(=O)(O)O)[C@@H](OP(=O)(O)OP(=O)(O)O)[C@H]2O)c(=O)[nH]1 [ppGpp, guanosine tetraphosphate]",Ki,S. aureus GMK [1],8.2 µM
same,Mode of inhibition,S. aureus GMK [2],competitively inhibits
same,Inhibition of GMK activity (sensitivity),E. coli GMK [3],resistant
"Nc1nc2c(ncn2[C@@H]2O[C@H](COP(=O)(O)OP(=O)(O)OP(=O)(O)O)[C@@H](OP(=O)(O)OP(=O)(O)O)[C@H]2O)c(=O)[nH]1 [pppGpp, guanosine pentaphosphate]",Mode of inhibition,S. mutans GMK [4],Comp
same,Mode of inhibition,S. coelicolor GMK [5],competitively inhibited and Comp
same,Inhibition of GMK activity (sensitivity),[6],still resistant
same,Mode of inhibition,S. meliloti GMK [7],modestly and competitively inhibited and Comp
same,Inhibition of GMK activity (sensitivity),[8],completely resistant
same,IC50,E. faecalis GMK-2 [9],~460 µM
same,Ki,S. meliloti GMK [10],81.6 ± 11.8 µM
same,Inhibition of GMK activity (sensitivity),[11],completely resistant
same,IC50,S. aureus GMK [1],9 to 24 µM
same,Ki,S. aureus GMK [1],7 µM
same,Mode of inhibition,E. faecalis GMK-1,Comp
same,Mode of inhibition,T. thermophilus GMK [12],strongly and competitively inhibited and Comp
same,IC50,S. mutans GMK [13],9 to 24 µM
same,Ki,S. mutans GMK [13],16.6 ± 2.4 µM
same,Mode of inhibition,C. gilvus GMK [14],competitively inhibited and Comp
same,Complex formation (binding) by ITC,B. subtilis GMK [15],detected
same,Mode of inhibition,S. aureus GMK [2],competitively inhibits and Comp
same,Ki,C. gilvus GMK [16],1700 ± 500 nM
same,Inhibition of GMK activity (sensitivity),[17],more resistant
same,IC50,L. monocytogenes GMK [18],9 to 24 µM
same,Ki,L. monocytogenes GMK [18],12 ± 1.1 µM
same,Mode of inhibition,D. radiodurans GMK [19],strongly and competitively inhibited and Comp
same,Binding by ITC,E. coli GMK [20],not observed
same,Inhibition of GMK activity (sensitivity),M. tuberculosis GMK,insensitive
same,Inhibition of GMK activity (sensitivity),Pseudomonas syringae GMK,completely resistant
same,Inhibition of GMK activity (sensitivity),Coxiella burnetii GMK,completely resistant
same,IC50,B. anthracis GMK [21],~120 µM
same,Ki,B. anthracis GMK [21],42.5 ± 7.3 µM
same,IC50,B. subtilis GMK [22],~16 µM
same,Mode of inhibition,B. anthracis GMK [23],Comp
same,Ki,T. thermophilus IMPDH,~11 µM
same,Ki,D. radiodurans GMK [24],1600 ± 400 nM
same,Ki of the variant (in words),B. subtilis GMK Y77F,increased Ki to a level comparable to that of B. anthracis GMK
same,Ki,T. thermophilus GMK [25],2900 ± 500 nM
same,Ki,E. faecalis GMK-2 [26],355 ± 26 µM
same,Mode of inhibition,E. faecalis GMK-2 [26],noncompetitively inhibited; also recorded: Noncomp
same,Inhibition of GMK activity (sensitivity),[27],completely resistant
same,Ki,S. coelicolor GMK [28],61.5 ± 9.6 µM
same,Mode of inhibition,L. monocytogenes GMK [29],Comp
same,Mode of inhibition,B. subtilis GMK [30],Comp
same,Inhibition of GMK activity (sensitivity),E. coli GMK [3],completely resistant
same,Ki,A. tumefaciens GMK,53.5 ± 8.9 µM
same,Mode of inhibition,A. tumefaciens GMK,modestly and competitively inhibited and Comp
same,Inhibition of GMK activity (sensitivity),[31],resistant
B. anthracis GMK (Bacillus anthracis),Km,[32],78.1 ± 39.7 µM
same,kcat,[32],57.6 ± 21.9 s⁻¹
B. subtilis GMK (Bacillus subtilis subsp. subtilis str. 168),Km,[32],24.6 ± 3.4 µM
same,kcat,[32],23 ± 1 s⁻¹
C. gilvus GMK (Cellulomonas gilvus ATCC 13127),Km,[32],22.5 ± 7.3 µM
same,kcat,[32],25 ± 2.7 s⁻¹
D. radiodurans GMK (Deinococcus radiodurans R1 = ATCC 13939 = DSM 20539),Km,[32],17.8 ± 5.4 µM
same,kcat,[32],44.5 ± 4.4 s⁻¹
L. monocytogenes GMK (Listeria monocytogenes EGD-e),Km,[32],84.7 ± 14.2 µM
same,kcat,[32],54.9 ± 5.6 s⁻¹
S. aureus GMK (Staphylococcus aureus subsp. aureus N315),Km,[32],35.1 ± 7.1 µM
same,kcat,[32],72.9 ± 7.2 s⁻¹
S. coelicolor GMK (Streptomyces coelicolor A3(2)),Km,[32],29.7 ± 3.4 µM
same,kcat,[32],25.5 ± 0.7 s⁻¹
S. meliloti GMK (Sinorhizobium meliloti 1021),Km,[32],14.1 ± 1.3 µM
same,kcat,[32],19.5 ± 0.3 s⁻¹
S. mutans GMK (Streptococcus mutans UA159),Km,[32],147.4 ± 68.6 µM
same,kcat,[32],68.9 ± 24.8 s⁻¹
T. thermophilus GMK (Thermus thermophilus HB8),Km,[32],17.5 ± 4.1 µM
same,kcat,[32],4.8 ± 0.4 s⁻¹
